Literature values as cited in patent US20090285877A1, “Percutaneous absorption preparation containing palonosetron” (HISAMITSU PHARMACEUTICAL CO., INC.,, priority 2008, published 2009).

Target: T1, 5-HT3 receptor (Homo sapiens, UniProt P46098)
T1 sequence (P46098 24-478): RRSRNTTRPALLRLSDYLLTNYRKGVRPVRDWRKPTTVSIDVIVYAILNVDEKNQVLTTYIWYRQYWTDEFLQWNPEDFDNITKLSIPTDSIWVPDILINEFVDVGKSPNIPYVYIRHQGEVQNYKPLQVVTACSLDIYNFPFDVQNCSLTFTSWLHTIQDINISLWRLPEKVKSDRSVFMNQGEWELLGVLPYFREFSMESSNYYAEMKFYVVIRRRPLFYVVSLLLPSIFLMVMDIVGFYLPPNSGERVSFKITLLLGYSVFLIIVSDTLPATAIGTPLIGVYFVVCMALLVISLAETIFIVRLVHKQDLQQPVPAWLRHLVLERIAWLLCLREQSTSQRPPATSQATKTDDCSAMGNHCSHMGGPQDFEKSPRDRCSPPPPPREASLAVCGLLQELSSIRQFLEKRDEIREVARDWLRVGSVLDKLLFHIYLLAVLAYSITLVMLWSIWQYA

Cl.O=C1c2cccc3c2[C@H](CCC3)CN1[C@@H]1CN2CCC1CC2 [Palonosetron hydrochloride, (3aS)-2-[(S)-1-azabicyclo[2.2.2]oct-3-yl]-2,3,3a,4,5,6-hexahydro-1-oxo-1H-1Hbenz[de]isoquinoline hydrochloride]
binding affinity for 5-HT3 receptor: high binding affinity
